Measured values: patent publication US11534457B2, “Use of dextran sulfate” (priority 2017, dated 2022)

Experiments:
[1] = test system: BF4T system [bronchial epithelial cells and HDFn+(TNFα and IL-4)]; assay: BioMAP BF4T system; format: cell-based, Human
Excerpt: (§1) In this study LMW-DS was characterized by profiling in the BioMAP® Diversity PLUS panel. The BioMAP® panel consists of human primary cell-based systems designed to model different aspects of the human body in an in vitro format. The 12 systems in the BioMAP® Diversity PLUS panel (Table 32) allow test agent characterization in an unbiased way across a broad set of systems modeling various human disease states. The BioMA®P systems are constructed with one or more primary cell types from healthy human donors, with stimuli, such as cytokines or growth factors, added to capture relevant signaling networks that naturally occur in human tissue or pathological conditions. […]
(§2) Systems are derived from either single cell types or co-culture systems. […] Test agents prepared in either DMSO (small molecules; final concentration 0.1%) or PBS (biologics) are added at the indicated concentrations 1-hr before stimulation, and remain in culture for 24-hrs or as otherwise indicated (48-hrs, MyoF system; 72-hrs, BT system (soluble readouts); 168-hrs, BT system (secreted IgG)). […] Soluble factors from supernatants are quantified using either HTRF® detection, bead-based multiplex immunoassay or capture ELISA. Overt adverse effects of test agents on cell proliferation and viability (cytotoxicity) are detected by sulforhodamine B (SRB) staining, for adherent cells, and alamarBlue® reduction for cells in suspension. […]

[2] = test system: CASM3C system [coronary artery smooth muscle cells+(IL-1β, TNFα and IFNγ)]; assay: BioMAP CASM3C system; format: cell-based, Human
Excerpt: as §1, §2

[3] = test system: KF3CT system [keratinocytes and HDFn+(IL-1β, TNFα, IFNγ and TGFβ)]; assay: BioMAP KF3CT system; format: cell-based, Human
Excerpt: as §1, §2

human motor neurons = assay: PI staining (DNA content, cell cycle, cell numbers, apoptotic fraction), Acumen cytometry; format: cell-based; conditions: 0.01 and 0.1 mg/ml
Procedure: The study aims were to evaluate the effect of LMW-DS on cell survival and expression of differentiation proteins in three cell types, cerebral cortical neurons, motor neurons and Schwann cells, using two concentrations 0.01 and 0.1 mg/ml of LMW-DS.
Neurons were cultured as 40,000 cells per well and Schwann cells 3,000 cells per. Cells were treated after 24 hours. The number of cells per well depended on the growth phenotype, proliferative capacity, etc.
NeuroBlast was pre-warmed to 37° C. Cells were thawed in a 37° C. water bath for no longer than 2 min. 1 ml of media was gently added drop-wise. Cells were resuspended and transferred to a 15 ml tube containing 9 ml of medium. Cells were centrifuged at 200 relative centrifugal force (RCF) for 5 min. Pellet was resuspended in 5 ml of medium and cells were counted with the Cellometer. 40,000 cells per well were seeded in previously coated 96-well plates. Cells were incubated at 37° C. with 5% CO2. Cells were allowed to settle for 24 hours before drug treatment. After 24 hours NeuroBlast medium was replaced with MotorBlast medium (Lonzo).
LMW-DS was prepared in the culture media of choice for each cell line and added to the respective wells in the doses 0.01 and 0.1 mg/ml. For cell survival assays cells were analyzed after 24 and 48 hours in eight identical wells/dose/time point. Differentiation and protein expression assay was analyzed after 48 hours, also in octuplicates.
Cells were fixated in the wells. Propidium iodine was used for viability assay. For immunohistochemical analysis, neurons were stained with βIII-tubulin, which is a tubulin specific for neurons. Schwann cells were stained for Myelin Basic Protein (MBP). For the negative controls PBST (0.1% Triton-X-100 in PBS) was applied instead of primary antibodies.
The Acumen cytometer allows the direct cytometric analysis of attached cells without prior detachment. […] The protein content of the cells can also be directly measured and expressed as either ‘total protein content’ or ‘mean protein content’.

low molecular weight dextran sulfate [LMW-DS]
Increased biomarker activity ([1]; BF4T system): Eot3
Eotaxin-3 ([1]; lower concentrations only): Modestly increased
Decreased biomarker activity ([2]; CASM3C system): VCAM-1, MIG
key inflammation biomarkers including MIG, VCAM, IP-10 and ITAC ([2]; all tested concentrations): decreased over all tested concentrations
Decreased biomarker activity [3]: MCP-1
Increased biomarker activity [3]: IL-8
cell loss in cultures (human motor neurons): major cell loss
number of cells in the G2/M phase (PI content) (human motor neurons): appeared to increase the number of cells in the G2/M phase
proliferation within a population of very small cells (human motor neurons): small increase in proliferation
